Data reported in patent US8946438B2, “Benzamides, production thereof, and use thereof as medicaments” (Boehringer Ingelheim International GmbH, priority 2008, dated 2015).

Biological target: p38 MAP-kinase (Homo sapiens, UniProt Q16539)
Assay: Enzymatic assay: inhibition of p38 MAP-kinase (phosphorylation of GST-tagged ATF2, chemoluminescence bead readout)
Type: biochemical
Details: inhibitor 1 μM; activated p38 MAP-kinase 1 nM; 4 h preincubation; ATP 100 μM; ATF2 10 nM; read-out: % inhibitory effect at 1 μM
Experimental: In this, the amount of a substrate phosphorylated by the kinase is quantified. The test is carried out as follows:
The kinase reaction is carried out in the presence of HEPES (20 mM, pH 7), MgCl2 (10 mM), DTT (1 mM) and TWEEN20 (0.01%). First, dimethylsulphoxide or inhibitor (final concentration: 1 μM) dissolved in dimethylsulphoxide are placed in a reaction vessel. Then the activated p38 MAP-kinase (final concentration 1 nM) is added and the mixture is incubated for 4 h at ambient temperature. Then a mixture of substrate (GST-tagged ATF2) and ATP is added and everything is incubated together for a further hour (final concentration ATP: 100 μM; final concentration ATF2: 10 nM).
The concentration of phosphorylated ATF2 is quantified by chemoluminescence-induced light emission. For this, a glutathione donor bead (final concentration: 5 μg/ml) which binds to the gluthathione on the ATF2 and phospho-ATF2 antibodies are added to the reaction mixture (final concentration: 3 nM; this binds the phosphate group added by the kinase reaction) to which a Protein A Acceptor Bead (final concentration: 5 μg/ml) binds. These components are dissolved in a buffer which contains 20 mM HEPES pH 7.0, 200 mM NaCL, 80 mM EDTA as well as 0.3% BSA. This reaction mixture is incubated in the dark for 1 hour at ambient temperature. When these beads come physically close, visible light is emitted which is measured in a photometer at 520-620 nm.
To determine the inhibitory activity of the compounds according to the invention a calculation is made to determine the percentage by which the kinase activity is inhibited at a fixed inhibitor concentration of 1 μM. The maximum activity is determined by non-inhibited kinase. The minimum activity or nonspecific background activity is determined using a reaction mixture without kinase. […] Table 2 summarises the degree of inhibition of the enzyme p38 MAP-kinase—as described hereinbefore—of the compounds according to the invention detailed in the section “Preparation of the final compounds”.

Sequence of p38 MAP-kinase (Q16539 whole entry): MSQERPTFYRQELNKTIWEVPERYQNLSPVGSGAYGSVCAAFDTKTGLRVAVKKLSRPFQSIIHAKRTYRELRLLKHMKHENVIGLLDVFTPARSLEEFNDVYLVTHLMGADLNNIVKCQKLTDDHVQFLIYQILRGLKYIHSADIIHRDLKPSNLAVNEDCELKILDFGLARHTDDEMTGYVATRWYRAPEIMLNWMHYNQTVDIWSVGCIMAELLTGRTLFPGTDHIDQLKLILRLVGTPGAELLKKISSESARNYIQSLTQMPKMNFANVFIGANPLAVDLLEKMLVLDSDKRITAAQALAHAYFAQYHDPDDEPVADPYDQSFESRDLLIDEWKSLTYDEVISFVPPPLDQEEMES

Row | inhibition at 1 µM [%] | Structure (SMILES)
1 | 95.6 | COc1c(NC(=O)c2ccc(C)c(Oc3cc(N(C)C4CCN(C)C4)ncn3)c2)cc(C(C)(C)C)cc1NS(C)(=O)=O (stereo not shown) [4(20), N-(5-tert-butyl-3-methanesulphonylamino-2-methoxy-phenyl)-4-methyl-3-{6-[methyl-(1-methyl-pyrrolidin-3-yl)-amino]-pyrimidin-4-yloxy}-benzamide]
2 | 96.8 | COc1c(NC(=O)c2ccc(C)c(Oc3cc(N4CCNCC4)ncn3)c2)cc(C(C)(C)C)cc1NS(C)(=O)=O [5(1), N-(5-tert-butyl-3-methanesulphonylamino-2-methoxy-phenyl)-4-methyl-3-(6-piperazin-1-yl-pyrimidin-4-yloxy)-benzamide]
3 | 93.2 | COc1c(NC(=O)c2ccc(C)c(Oc3cc(C(=O)N4CCNCC4)ncn3)c2)cc(C(C)(C)C)cc1NS(C)(=O)=O [5(2), N-(5-tert-butyl-3-methanesulphonylamino-2-methoxy-phenyl)-4-methyl-3-[6-(piperazine-1-carbonyl)-pyrimidin-4-yloxy]-benzamide x trifluoroacetic acid]
4 | 95 | COc1c(NC(=O)c2ccc(Cl)c(Oc3cc(C(=O)N4CCNCC4)ncn3)c2)cc(C(C)(C)C)cc1NS(C)(=O)=O [5(3), N-(5-tert-butyl-3-methanesulphonylamino-2-methoxy-phenyl)-4-chloro-3-[6-(piperazine-1-carbonyl)-pyrimidin-4-yloxy]-benzamide]
5 | 45.3 | COc1c(NC(=O)c2ccc(C(F)(F)F)c(Oc3ccnc(N4CCNCC4)n3)c2)cc(C(C)(C)C)cc1NS(C)(=O)=O [5(4), N-(5-tert-butyl-3-methanesulphonylamino-2-methoxy-phenyl)-3-(2-piperazin-1-yl-pyrimidin-4-yloxy)-4-trifluoromethyl-benzamide x trifluoroacetic acid]
6 | 98.3 | COc1c(NC(=O)c2ccc(Cl)c(Oc3ccnc(N4CCNCC4)n3)c2)cc(C(C)(C)C)cc1NS(C)(=O)=O [5(5), N-(5-tert-butyl-3-methanesulphonylamino-2-methoxy-phenyl)-4-chloro-3-(2-piperazin-1-yl-pyrimidin-4-yloxy)-benzamide]
7 | 98.3 | COc1c(NC(=O)c2ccc(C)c(Oc3ccnc(CN4CCNCC4)n3)c2)cc(C(C)(C)C)cc1NS(C)(=O)=O [5(6), N-(5-tert-butyl-3-methanesulphonylamino-2-methoxy-phenyl)-4-methyl-3-(2-piperazin-1-ylmethyl-pyrimidin-4-yloxy)-benzamide]
8 | 97.8 | COc1c(NC(=O)c2ccc(C)c(Oc3cc(CN4CCNCC4)ncn3)c2)cc(C(C)(C)C)cc1NS(C)(=O)=O [5(7), N-(5-tert-butyl-3-methanesulphonylamino-2-methoxy-phenyl)-4-methyl-3-(6-piperazin-1-ylmethyl-pyrimidin-4-yloxy)-benzamide]
9 | 98.9 | COc1ccc(C(=O)Nc2cc(C(C)(C)C)cc(NS(C)(=O)=O)c2OC)cc1Oc1ccnc(N2CCNCC2)n1 [5(8), N-(5-tert-butyl-3-methanesulphonylamino-2-methoxy-phenyl)-4-methoxy-3-(2-piperazin-1-yl-pyrimidin-4-yloxy)-benzamide]
10 | 98.5 | COc1c(NC(=O)c2ccc(C)c(Oc3ccnc(CN4CCNCC4)c3)c2)cc(C(C)(C)C)cc1NS(C)(=O)=O [5(9), N-(5-tert-butyl-3-methanesulphonylamino-2-methoxy-phenyl)-4-methyl-3-(2-piperazin-1-ylmethyl-pyridin-4-yloxy)-benzamide x trifluoroacetic acid]
11 | 94.6 | COc1c(NC(=O)c2ccc(F)c(Oc3ccnc(N4CCNCC4)n3)c2)cc(C(C)(C)C)cc1NS(C)(=O)=O [5(10), N-(5-tert-butyl-3-methanesulphonylamino-2-methoxy-phenyl)-4-fluoro-3-(2-piperazin-1-yl-pyrimidin-4-yloxy)-benzamide x trifluoroacetic acid]
12 | 98.4 | COc1c(NC(=O)c2ccc(Br)c(Oc3ccnc(N4CCNCC4)n3)c2)cc(C(C)(C)C)cc1NS(C)(=O)=O [5(11), N-(5-tert-butyl-3-methanesulphonylamino-2-methoxy-phenyl)-4-bromo-3-(2-piperazin-1-yl-pyrimidin-4-yloxy)-benzamide]
13 | 98.6 | COc1c(NC(=O)c2cc(Cl)c(C)c(Oc3ccnc(N4CCNCC4)n3)c2)cc(C(C)(C)C)cc1NS(C)(=O)=O [5(12), N-(5-tert-butyl-3-methanesulphonylamino-2-methoxy-phenyl)-3-chloro-4-methyl-5-(2-piperazin-1-yl-pyrimidin-4-yloxy)-benzamide]
14 | 98.2 | COc1c(NC(=O)c2cc(F)c(C)c(Oc3ccnc(N4CCNCC4)n3)c2)cc(C(C)(C)C)cc1NS(C)(=O)=O [5(13), N-(5-tert-butyl-3-methanesulphonylamino-2-methoxy-phenyl)-3-fluoro-4-methyl-5-(2-piperazin-1-yl-pyrimidin-4-yloxy)-benzamide]
15 | 98.5 | COc1c(NC(=O)c2ccc(C)c(Oc3ccnc(N(C)C4CCNCC4)n3)c2)cc(C(C)(C)C)cc1NS(C)(=O)=O [5(14), N-(5-tert-butyl-3-methanesulphonylamino-2-methoxy-phenyl)-4-methyl-3-[2-(N-methyl-N-piperidin-4-yl-amino)-pyrimidin-4-yloxy]-benzamide]
16 | 96 | CCc1ccc(C(=O)Nc2cc(C(C)(C)C)cc(NS(C)(=O)=O)c2OC)cc1Oc1ccnc(N2CCNCC2)n1 [5(15), N-(5-tert-butyl-3-methanesulphonylamino-2-methoxy-phenyl)-4-ethyl-5-(2-piperazin-1-yl-pyrimidin-4-yloxy)-benzamide]
17 | 98.9 | COc1c(NC(=O)c2ccc(C)c(Oc3ccnc(NC4CCNCC4)n3)c2)cc(C(C)(C)C)cc1NS(C)(=O)=O [5(16), N-(5-tert-butyl-3-methanesulphonylamino-2-methoxy-phenyl)-4-methyl-3-[2-(piperidin-4-ylamino)-pyrimidin-4-yloxy]-benzamide]
18 | 98.2 | COc1c(NC(=O)c2ccc(C)c(Oc3cc(NC4CCNCC4)ncn3)c2)cc(C(C)(C)C)cc1NS(C)(=O)=O [5(17), N-(5-tert-butyl-3-methanesulphonylamino-2-methoxy-phenyl)-4-methyl-3-[6-(piperidin-4-ylamino)-pyrimidin-4-yloxy]-benzamide x trifluoroacetic acid]
19 | 98.7 | COc1c(NC(=O)c2ccc(C)c(Oc3cc(CC4CCNCC4)ncn3)c2)cc(C(C)(C)C)cc1NS(C)(=O)=O [5(18), N-(5-tert-butyl-3-methanesulphonylamino-2-methoxy-phenyl)-4-methyl-3-(6-piperidin-4-ylmethyl-pyrimidin-4-yloxy)-benzamide]
20 | 99.7 | COc1c(NC(=O)c2ccc(C)c(Oc3ccnc(CC4CCNCC4)n3)c2)cc(C(C)(C)C)cc1NS(C)(=O)=O [5(19), N-(5-tert-butyl-3-methanesulphonylamino-2-methoxy-phenyl)-4-methyl-3-(2-piperidin-4-ylmethyl-pyrimidin-4-yloxy)-benzamide]
21 | 99.5 | COc1c(NC(=O)c2ccc(C)c(Oc3ccnc(CC4CCNCC4)c3)c2)cc(C(C)(C)C)cc1NS(C)(=O)=O [5(20), N-(5-tert-butyl-3-methanesulphonylamino-2-methoxy-phenyl)-4-methyl-3-(2-piperidin-4-ylmethyl-pyridin-4-yloxy)-benzamide]
22 | 88.9 | COc1c(NC(=O)c2cc(C)cc(Oc3ccnc(C(=O)N4CCNCC4)n3)c2)cc(C(C)(C)C)cc1NS(C)(=O)=O [5(21), N-(5-tert-butyl-3-methanesulphonylamino-2-methoxy-phenyl)-3-methyl-5-[2-(piperazine-1-carbonyl)-pyrimidin-4-yloxy]-benzamide x trifluoroacetic acid]
23 | 85.7 | COc1c(NC(=O)c2cc(C)cc(Oc3ccnc(CN4CCNCC4)n3)c2)cc(C(C)(C)C)cc1NS(C)(=O)=O [5(22), N-(5-tert-butyl-3-methanesulphonylamino-2-methoxy-phenyl)-3-methyl-5-(2-piperazin-1-ylmethyl-pyrimidin-4-yloxy)-benzamide]
24 | 98.3 | COc1c(NC(=O)c2ccc(C)c(Oc3ccnc(NC4CCNC4)n3)c2)cc(C(C)(C)C)cc1NS(C)(=O)=O (stereo not shown) [5(23), N-(5-tert-butyl-3-methanesulphonylamino-2-methoxy-phenyl)-4-methyl-3-[2-(pyrrolidin-3-ylamino)-pyrimidin-4-yloxy]-benzamide]
25 | 97.9 | COc1c(NC(=O)c2ccc(C)c(Oc3ccnc(N(C)C4CCNC4)n3)c2)cc(C(C)(C)C)cc1NS(C)(=O)=O (stereo not shown) [5(24), N-(5-tert-butyl-3-methanesulphonylamino-2-methoxy-phenyl)-4-methyl-3-[2-(methyl-pyrrolidin-3-yl-amino)-pyrimidin-4-yloxy]-benzamide]
